From US10946098B2, “Activatable two-component photosensitizers” (Carnegie Mellon University, priority 2014, dated 2021)
Where two headings read alike, the source gives them in different places.

How the values were obtained:
[1] = Absorbance of free fluorogens; format: physicochemical; settings: for x band abs max (nm) / y band abs max (nm) / λAbs (nm) (Fluorogen): free fluorogen; for ε (10^4 M^−1cm^−1): second value in parentheses not explained
[2] = test system: dL5; assay: Fluorescence excitation/emission of fluorogen bound to dL5; format: physicochemical; settings: for λem (nm) / λex (nm): FAP-fluorogen complex; for +dL5 fluor ex (nm): main value
[3] = biological target: dL5; assay: KD measurement of fluorogen-dL5; settings: fluorogen binding to dL5
Protocol: (§1) FIGS. 7A-7C: FIG. 7A) KD measurement of MG-dL5 and MG2I-dL5, FIG. 7B) absorption spectra of 1 μM MG2I and MG2I with 5 μM dL5 (shorter wavelength absorption peak), FIG. 7C): fluorescence quantum yield measurement of MG2I-dL5 (squares) using Cy5 as standard (circles).
The iodination effect produces a 22 nm bathochromic shift of the x band of free MG while maintaining the FAP-fluorogen interactions. The iodination also renders the excitation maximum of MG2I-dL5 to 666 nm (compare to MG-dL5 at 633 nm), into the near infrared range (Table 1). FIGS. 7A-7C depict (FIG. 7A) KD measurement of MG-dL5 and MG2I-dL5, (FIG. 7B) absorption spectra of 1 μM MG2I and MG2I with 5 μM dL5 (shorter wavelength absorption peak), and (FIG. 7C) fluorescence quantum yield measurement of MG2I-dL5 (squares) using Cy5 as standard (circles).

[4] = test system: dL5; assay: Fluorescence quantum yield using Cy5 as standard; format: physicochemical; settings: fluorescence quantum yield of FAP-fluorogen, PBS7.4
Protocol: as §1
The 3, 5-diiodo-4-hydroxybenzaldehyde, anthracene-9, 10-dipropionic acid disodium salt ADPA, were purchased from VWR international and Sigma-Aldrich, tetrasulfonated aluminum phthalocyanine AlPcS4 from frontier scientific, PEG-catalase, PEG-SOD, hoechst dye 33342, live/dead cell viability/cytotoxicity kit L-3224 and dihydroethidium (hydroethidine) D11347 were from Molecular Probes. Basic media was from Invitrogen. H NMR and C NMR data are recorded from Bruker Avance™ 300 MHz and 500 MHz. Mass spectra are obtained from Thermo-Fisher LCQ ESI/APCI Ion Trap. Final products are purified by silica, neutral alumina and reverse-phase chromatography, purity were tested by UPLC. Raw absorbance values of respective free dyes and dye-FAP complex were measured on a PerkinElmer Lambda45 spectrophotometer. Fluorogenic enhancement was measured in 96 well microplates on a Tecan Safire2 reader. Quantum yields were determined by comparing integrated spectra of MG2I-dL5 complexes with Cy5 in PBS7.4 on a Quantamaster monochromator fluorimeter (Photon Technology International).

[5] = Singlet oxygen quantum yield by ADPA bleaching, AlPcS4 standard; format: physicochemical; settings: singlet oxygen quantum yield of FAP-fluorogen
Protocol: Determination of singlet oxygen quantum yield: PBS 7.4 solution contains 0.1 mM ADPA and optically matched samples are illuminated from a 660 nm LED source, at different time point, its fluorescence decrease at 374/402 nm was recorded, the data was then fitted into a linear plot, the ψΔ was then calculated from the slopes using the equation below.
To test the two-component FAP photosensitizer ability to generate singlet oxygen, anthracene-9, 10-dipropionic acid (ADPA), a commonly used singlet oxygen scavenger, was used. This was done by monitoring the fluorescence disappearance of ADPA at 374/402 nm. Aluminum phthalocyanine tetrasulfonate (AlPcS4) was used as the standard for the measurement of ^1O2 generation (ψΔ=0.34). Optically matched solutions of MG2I-dL5 and AlPcS4 at 660 nm are compared and the singlet oxygen quantum yield of the two-component FAP photosensitizer is estimated to be 0.13 (FIG. 8). […] This confirmed the specific generation of singlet oxygen from the complex. Importantly, both the fluorescent quantum yield and the singlet oxygen quantum yield of free dyes are not detectable under normal excitation conditions, due to the very short excited state lifetime (<1 […]). […] Moreover, with near infrared excitation, this genetically encoded complex is accessible for a range of tumors and can also be used as tool for tumor visualization with fair fluorescence.

[6] = test system: cardiac function of zebrafish larvae; assay: Photo-ablation of cardiac function of larval zebrafish; format: in vivo; settings: 500 nM fluorogen 3 hours
Excerpt: MG2I-FAP induced photo-ablation of cardiac function of transgenic zebrafish. […] In both control groups, development proceeded normally. Scale Bar=1000 μm and applied to all images.
First, transgenic zebrafish lines were produced that expressed a cytoplasmic FAP-mCerulean3 (FAP-mCer3) tandem protein under control of the heart-specific myosin light chain 7 (my17, also known as cmlc2) promoter, Tg(my17: FAP-mCer3). […] FIG. 19 are photomicrographs of zebrafish larvae as described above. White denotes the presence of cytoplasmic FAP-mCerulean3 in live cells.

[7] = test system: HEK cells transfected to express FAP
Protocol: Dead/Live cell viability assay: 400 nM dye (MG/MG-2I) was pre-complex with cells for 30 mins. After illumination, the buffer was replaced with 2 μM calcein AM and 4 μM EthD-1 working solution. After 30 min incubation at room temperature, the two-color fluorescence cell viability test was conducted with the cells.
Cell killing experiment and cell death count: MG/MG2I was added to the cells 30 minutes before illumination (for A431 and SKBR3 cells, affibody conjugated FAP was added 1 hour prior to illumination). Microscope and light box are used as illumination source, different light dose are achieved by changing of light intensity or illumination time. For death cell counting, the medium was replaced with PBS containing 1 uM propidium iodide and 8 uM Hoechst right after illumination. After 30 min incubation, cells were counted and the death cell ratio is determined by the ratio of PI to Hoechst.
The light induced cytotoxicity of two-component FAP photosensitizer on HEK cells, which were transfected to express FAP on cell surface, was tested. 400 nM MG2I/MG was added to the cell medium 30 minutes prior to illumination; 1 minute of continuous red light illumination from a confocal microscope was applied to cells (40× objective, 640 nm excitation, 0.76 W/cm^2).
The cause of MG2I-dL5 induced cell cytotoxicity was further delineated by adding different ROS quenchers to the solutions.

[8] = Recombinant ZEGFR:1907/FAPdL5** probes binding to malachite green; settings: for Kd / kon (*10^6M^−1S^−1): binding to malachite green; for Em (nm) / Ex (nm): probe with MG
Protocol: N and C-terminal fusions were evaluated, as well as a single FAP flanked by two affibodies for their properties to bind and activate MG-fluorogens as well as their binding to target receptors on cultured cells.
Characterization of recombinant probes affibody ZEGFR:1907 (A) and FAPdL5** (F) binding to malachite green.

[9] = test system: cell surface EGFR (A431 cells); assay: Cell surface EGFR labeling by ZEGFR:1907 fusion probes on A431 cells; format: binding, human
Protocol: The labeling of cell surface EGFR by ZEGFR:1907 fusion probes was tested with A431 cells, a cell line that expressed EGFR at high levels, ˜2000000/cell. […] By equilibrium binding fluorescence, the cell surface dissociation constant was estimated to be 122±16 nM for AF, 101±17 nM for FA and 37±6 nM for AFA.

[10] = standard for 1O2 generation; cited from earlier work
[11] = test system: wild-type HEK cells; format: cell-based
Protocol: (§2) FAP-conjugated HER1 affibody was used to target EGFR over-expressing tumor cells A431 in cell cultures mixed with wild-type HEK cells. 250 nM affiFAP was first added to label A431 cells, followed by 250 nM MG2I/MG. […] It is shown that the tumor cells need to be targeted first by the HER1-dL5 affibody, and become accessible to photosentisization only after MG2I is added and bound to the affiFAP. […] Thus, by controlling the specific generation of singlet oxygen on the tumor site, we can eliminate the nonspecific damage to normal cells. […] This improvement to the current state-of-the-art photodynamic therapy will be of great utility, for example with the methods and modularity described herein.

[12] = test system: EGFR over-expressing tumor cells A431; assay: Selective cancer cell killing, A431 mixed with wild-type HEK; format: cell-based; settings: 250 nM affiFAP (FAP-conjugated HER1 affibody) then 250 nM dye
Protocol: AffiFAP/FAP was added first and allow cell targeting for 30 minutes, MG2I/MG-ester was then added and incubated for another 30 minutes (No washing is needed in the process). After 1 min illumination (60× objective, 2.43 W/cm^2), Dead/Live working solution was used to replace the cell culture medium. Two-color viability fluorescence assay was performed after 1 hr staining
as §2

[13] = test system: SKBR3 cancer cells; assay: Selective killing of SKBR3 cancer cells; format: cell-based; settings: 100 nM HER2 conjugated dL5 then 100 nM MG2I
Protocol: 100 nM HER2 conjugated dL5 was first added to the cells following by 100 nM MG2I.
as §2

[14] = test system: cells; assay: Toxicity of free MG2I to cells; format: cell-based
[15] = transgenic Tg(my17: FAP-mCer3), 48 hpf, 12 minutes 659 nm 242 mW/cm^2

CCOC(=O)CCCOc1ccc(C(=C2C=CC(=[N+](C)C)C=C2)c2ccc(N(C)C)cc2)cc1 [MG, reference compound]
x band abs max (nm) [1]: 606 nm | y band abs max (nm) [1]: 466 nm | λAbs (nm) (Fluorogen) [1]: 606 nm | ε (10^4 M^−1cm^−1) [1]: 10.3(9.18) 10^4 M^−1cm^−1 | λem (nm) [2]: 668 nm | λex (nm) [2]: 633 nm | +dL5 fluor em (nm) ([2]; bound to dL5): 668 nm | +dL5 fluor ex (nm) ([2]; bound to dL5): 636 nm | +dL5 fluor ex (nm), value in parentheses ([2]; bound to dL5, second (minor) excitation peak printed in parentheses): 482 nm | Kd [3]: 0.005 nM | ΦF [4]: 0.123 | ΦΔ [5]: <0.005 | heart function immediately after illumination [6, 15]: normal

[N-]=[N+]=[N-] [sodium azide, reference compound]
inhibition of MG2I-dL5 induced cytotoxicity by ROS quencher ([7]; concentrations higher than 10 mM): totally inhibited

AF: fusion of affibody ZEGFR:1907 (A) and FAPdL5** (F)
Kd [8]: 0.43 ± 0.12 nM | kon (*10^6M^−1S^−1) [8]: 1.05 *10^6M^−1S^−1 | emission peak ([8]; in the presence of MG): 664 nm | major excitation peak ([8]; in the presence of MG): 636 nm | minor excitation peak ([8]; in the presence of MG): 480 nm | Em (nm) [8]: 664 nm | Ex (nm) [8]: 634 nm | cell surface labeling, live-cell imaging [9]: clear cell surface labeling

AFA: single FAPdL5** flanked by two ZEGFR:1907 affibodies
Kd [8]: 0.53 ± 0.11 nM | kon (*10^6M^−1S^−1) [8]: 1.02 *10^6M^−1S^−1 | emission peak ([8]; in the presence of MG): 664 nm | fluorescence intensity compared to F and AF ([8]; in the presence of MG): enhanced fluorescence intensity | major excitation peak ([8]; in the presence of MG): 636 nm | minor excitation peak ([8]; in the presence of MG): 480 nm | Em (nm) [8]: 666 nm | Ex (nm) [8]: 634 nm | cell surface labeling, live-cell imaging [9]: clear cell surface labeling

Aluminum phthalocyanine tetrasulfonate [AlPcS4]
ψΔ of standard [10]: 0.34

Methylium, bis[4-(dimethylamino)phenyl](4-(3-carboethoxypropyl)-3,5-diiodo-phenyl)-chloride [MG2I]
x band abs max (nm) [1]: 628 nm | y band abs max (nm) [1]: 440 nm | λAbs (nm) (Fluorogen) [1]: 628 nm | bathochromic shift of the x band relative to free MG ([1]; iodination effect): 22 nm | ε (10^4 M^−1cm^−1) [1]: 10.1(9.02) 10^4 M^−1cm^−1 | λem (nm) [2]: 693 nm | λex (nm) [2]: 666 nm | +dL5 fluor em (nm) ([2]; bound to dL5): 693 nm | +dL5 fluor ex (nm) ([2]; bound to dL5): 666 nm | Kd [3]: 0.073 nM | ΦF [4]: 0.037 | ΦΔ [5]: 0.13 | light induced cytotoxicity [11]: no observed light-induced cytotoxicity | killing of A431 cells upon illumination [12]: only the EGFR1-expressing tumor cells were killed | killing of SKBR3 cells [13]: selective killing | heart function immediately after illumination [6, 15]: no sign of heart beat or blood circulation | heart function immediately after illumination ([6]; wild-type zebrafish, 12 minutes 659 nm): normal | toxicity to cells [14]: no toxicity to cells

affibody: affibody ZEGFR:1907 alone (SEQ ID NO: 18)
fluorescence activation or fluorogen binding by affibody alone [8]: No detectable fluorescence activation or fluorogen binding

B1: catalase: ROS quencher enzyme (protein, UniProt P00432 2-527, looked up)
Catalase: ADNRDPASDQMKHWKEQRAAQKPDVLTTGGGNPVGDKLNSLTVGPRGPLLVQDVVFTDEMAHFDRERIPERVVHAKGAGAFGYFEVTHDITRYSKAKVFEHIGKRTPIAVRFSTVAGESGSADTVRDPRGFAVKFYTEDGNWDLVGNNTPIFFIRDALLFPSFIHSQKRNPQTHLKDPDMVWDFWSLRPESLHQVSFLFSDRGIPDGHRHMNGYGSHTFKLVNANGEAVYCKFHYKTDQGIKNLSVEDAARLAHEDPDYGLRDLFNAIATGNYPSWTLYIQVMTFSEAEIFPFNPFDLTKVWPHGDYPLIPVGKLVLNRNPVNYFAEVEQLAFDPSNMPPGIEPSPDKMLQGRLFAYPDTHRHRLGPNYLQIPVNCPYRARVANYQRDGPMCMMDNQGGAPNYYPNSFSAPEHQPSALEHRTHFSGDVQRFNSANDDNVTQVRTFYLKVLNEEQRKRLCENIAGHLKDAQLFIQKKAVKNFSDVHPEYGSRIQALLDKYNEEKPKNAVHTYVQHGSHLSAREKANL
modifications: PEG
inhibition of MG2I-dL5 induced cytotoxicity by ROS quencher ([7]; up to 1000 U/mL): very little effect in rescuing cell death
